Measurements as given in patent US6903108B2, “Fungicidal mixtures based on amide compounds and pyridine derivatives” (BASF Aktiengesellschaft, priority 1997, dated 2005).
“And” between values parts separate entries of the source, which are not always exact repeats. Equal entries are not always repeated.

How the values were obtained:
[1] = system: Botrytis cinerea; assay: Activity against Botrytis cinerea on bell pepper leaves (Use Example 1); conditions: in vivo
[2] = system: Botrytis cinerea; assay: Activity against Botrytis cinerea on bell peppers, green fruit disks (Use Example 2); format: in vivo

Compound | Efficacy in % of the untreated control [1] | Efficacy in % of the untreated control ([2]; in vivo) [%] | further results
CN(C)S(=O)(=O)N(SC(F)(Cl)Cl)c1ccccc1 [Compound IXa, dichlofluanid] | 0% |  | 
O=C(Nc1ccccc1-c1ccc(Cl)cc1)c1cccnc1Cl [Compound I.2] | 67% and 44% |  | 
O=[N+]([O-])c1cc(C(F)(F)F)c(Cl)c([N+](=O)[O-])c1Nc1ncc(C(F)(F)F)cc1Cl [Compound VIII, fluazinam] |  |  | Efficacy in % of the untreated control ([2]; 16 ppm active ingredient in the spray liquor, green bell pepper fruit disks, 4 days at 18° C.): 0%; Efficacy in % of the untreated control ([2]; 31 ppm active ingredient in the spray liquor, green bell pepper fruit disks, 4 days at 18° C.): 0%
O=C(Nc1ccccc1-c1ccc(F)cc1)c1cccnc1Cl [Compound I.1] |  | 0 | 
N#Cc1c[nH]cc1-c1cccc2c1OC(F)(F)O2 [Compound IV, fludioxinil] |  | 0 | 
O=C1c2ccccc2C(=O)N1SC(Cl)(Cl)Cl [Compound VII, folpet] | 0% | 0 | 
